Source: patent USRE47689E1, “Compounds for treating spinal muscular atrophy” (PTC Therapeutics, Inc., priority 2011, dated 2019)

What was measured:
[1] = system: Smn protein; experiment: Smn protein assay in cultured cells (SMN HTRF); type: cell-based, human; conditions: 48 hours; for Smn protein expression: SMA Type 1 patient fibroblast cells, SMN HTRF assay; for maximum fold (Fold) increase of Smn protein: SMA patient fibroblast cells, 7-point concentration data, fold increase relative to vehicle control (SMN HTRF)
Outline: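 Smn in SMA fibroblast lysates, measured by anti-SMN HTRF after 48 h compound exposure; EC1.5x from fold change over vehicle.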

[2] = system: Smn protein; experiment: Smn protein assay in tissues of adult C/C-allele SMA mice; type: in vivo, mouse; conditions: brain, spinal cord, muscle, 10 mg/kg orally twice a day for 10 days
Method: This Smn protein assay compares tissues from test compound treated mice with those from DMSO vehicle treated mice to determine the increase in levels of Smn protein produced from the human SMN2 gene.
Protocol. The tissue samples in Safe-Lock tubes are weighed and the volume of RIPA buffer containing the protease inhibitor cocktail is added based on the weight to volume ratios for each type of tissue: Brain (50 mg/mL), Muscle (50 mg/mL) and Spinal Cord (25 mg/mL).
Tissues are homogenized using the TissueLyzer by bead milling. 5 mm stainless steel beads are added to the sample and shaken vigorously for 5 minutes at 30 Hz in the TissueLyzer. The samples are then centrifuged for 20 minutes at 14,000×g in a microcentrifuge and the homogenates transferred to the PCR plate. The homogenates are diluted in RIPA buffer to approximately 1 mg/mL for HTRF and approximately 0.5 mg/mL for total protein measurement using the BCA protein assay. For the SMN HTRF assay, 35 μL of the tissue homogenate is transferred to a 384-well plate containing 5 μL of the antibody solution (1:100 dilution of each of the anti-SMNd2 and anti-SMN Kryptate in reconstitution buffer). To provide a control signal, three (3) wells in the plate contain only RIPA Lysis Buffer and, thus, serve as Blank control wells. The plate is centrifuged for 1 minute to bring the solution to the bottom of the wells and then incubated overnight at room temperature. Fluorescence for each well of the plate at 665 nm and 620 nm is measured on an EnVision multilabel plate reader (Perkin-Elmer). The total protein in the tissue homogenate is measured using the BCA assay according to the manufacturer's protocol.
The normalized fluorescence signal is calculated for each sample, Blank and vehicle control well by dividing the signal at 665 nm by the signal at 620 nm. Normalizing the signal accounts for possible fluorescence quenching due to the matrix effect of the tissue homogenate. The ΔF value (a measurement of Smn protein abundance) for each tissue sample well is calculated by subtracting the normalized average fluorescence for the Blank control wells from the normalized fluorescence for each tissue sample well and then dividing this difference by the normalized average fluorescence for the Blank control wells. The ΔF value for each tissue sample well is divided by the total protein quantity (determined using the BCA assay) for that tissue sample. The change in Smn protein abundance for each tissue sample relative to the vehicle control is calculated as the percent difference in the ΔF value of the tissue sample in the presence of the test compound and the averaged ΔF value of the vehicle control signal divided by the averaged ΔF value of the vehicle control signal. […]

[3] = system: SMA Δ7 homozygous knockout mice; experiment: Righting reflex in neonatal Δ7 SMA mice; type: in vivo, mouse; conditions: IP QD from PND 3 to day 24, then orally BID, compared to vehicle
Method: The functional change in righting reflex of neonatal SMA mice is used to determine whether treatment with a test compound improves righting reflex.
Protocol. SMA Δ7 homozygous knockout mice are dosed intraperitoneally (IP) with test compound or vehicle (100% DMSO) once per day (QD) from postnatal day (PND) 3 until the dose regimen is switched to an oral dose twice per day (BID) in 0.5% hydroxypropylmethyl cellulose (HPMC) with 0.1% Tween-80 at a dose 3.16-fold higher than the dose used for IP. The righting reflex time is measured as the time taken by a mouse to flip over onto its feet after being laid on its back. Righting reflex is measured five times for each mouse (allowing a maximal time of 30 sec for each try) with 5 minutes between each measurement. The righting reflex time for SMA Δ7 homozygous knockout mice treated with test compound or vehicle and age-matched heterozygous mice is measured on PND 10, 14 and 18 and plotted.

Row | SMILES | Smn protein expression [1] | maximum fold (Fold) increase of Smn protein [1] | Smn protein levels in target tissues compared with heterozygous mice [2] | total protein normalized Smn level relative to the vehicle group [2] | righting reflex [3] | EC1.5x (concentration giving 1.5-fold Smn protein increase) ([1]; SMA Type 1 patient fibroblast cells (GM03813), 7-point concentration curve, SMN HTRF, concentration producing 1.5 times Smn protein vs DMSO vehicle control, read-out: EC1.5x for Smn protein expression) [nM]
1 | CC(C)NCCc1ccc2cc(-c3nc4c(Cl)cccc4s3)c(=O)oc2c1 [Cpd 35, 3-(4-chloro-1,3-benzothiazol-2-yl)-7-[2-(propan-2-ylamino)ethyl]-2H-chromen-2-one] | dose dependent increase in Smn protein expression | * (maximum fold increase of ≤1.2) | above those observed in the corresponding tissues of the heterozygous mice | increased | improved compared to vehicle treated mice | 
2 | CCN1CCN(c2ccc3cc(-c4cn5cc(C)nc(C)c5n4)c(=O)oc3c2)C[C@@H]1C [Cpd 626, 3-(6,8-dimethylimidazo[1,2-a]pyrazin-2-yl)-7-[(3S)-4-ethyl-3-methylpiperazin-1-yl]-2H-chromen-2-one] | dose dependent increase in Smn protein expression | **** (fold increase between >1.5 and ≤1.65) | above those observed in the corresponding tissues of the heterozygous mice | increased |  | < 300
